For 17 compounds, IC50 and Ki results are on record in ChEMBL document CHEMBL1129203, “Structure-activity relationships in 3-oxo-1,4-benzodiazepine-2-acetic acid GPIIb/IIIa antagonists. The 2-benzazepine series” (Bioorg Med Chem Lett, 1996).

The species entered for one assay is Homo sapiens. The assay can be described thus: In vitro inhibition of platelet aggregation in human platelet-rich plasma induced by ADP. The assay is classed as functional.
In assay [1] the target is Integrin alpha-IIb/beta-3 (Homo sapiens, UniProt P05106+P08514). Description: In vitro binding affinity against human alpha IIb beta-3 integrin. The assay is classed as protein-complex assay.
Chain of Integrin alpha-IIb/beta-3 (P05106 27-788 limits assumed): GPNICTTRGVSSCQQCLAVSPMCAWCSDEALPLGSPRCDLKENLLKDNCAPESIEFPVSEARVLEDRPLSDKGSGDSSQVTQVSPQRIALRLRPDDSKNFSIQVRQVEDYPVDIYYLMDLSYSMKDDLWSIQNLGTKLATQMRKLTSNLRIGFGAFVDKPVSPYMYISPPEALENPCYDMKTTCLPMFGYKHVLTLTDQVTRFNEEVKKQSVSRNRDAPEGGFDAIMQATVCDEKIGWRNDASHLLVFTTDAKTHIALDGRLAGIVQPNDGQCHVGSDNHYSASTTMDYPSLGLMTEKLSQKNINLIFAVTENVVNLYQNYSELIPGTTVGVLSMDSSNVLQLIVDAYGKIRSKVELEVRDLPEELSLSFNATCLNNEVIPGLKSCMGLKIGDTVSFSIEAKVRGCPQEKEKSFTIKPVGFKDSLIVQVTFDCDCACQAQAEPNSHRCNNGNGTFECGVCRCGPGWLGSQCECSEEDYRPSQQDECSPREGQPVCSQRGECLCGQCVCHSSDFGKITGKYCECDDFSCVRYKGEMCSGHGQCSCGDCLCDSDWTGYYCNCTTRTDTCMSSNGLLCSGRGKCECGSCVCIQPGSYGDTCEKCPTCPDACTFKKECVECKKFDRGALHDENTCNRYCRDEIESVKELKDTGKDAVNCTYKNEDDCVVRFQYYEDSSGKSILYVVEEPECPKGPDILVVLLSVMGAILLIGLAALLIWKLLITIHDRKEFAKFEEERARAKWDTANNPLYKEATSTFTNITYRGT
Chain of Integrin alpha-IIb/beta-3 (P08514 32-887 limits assumed): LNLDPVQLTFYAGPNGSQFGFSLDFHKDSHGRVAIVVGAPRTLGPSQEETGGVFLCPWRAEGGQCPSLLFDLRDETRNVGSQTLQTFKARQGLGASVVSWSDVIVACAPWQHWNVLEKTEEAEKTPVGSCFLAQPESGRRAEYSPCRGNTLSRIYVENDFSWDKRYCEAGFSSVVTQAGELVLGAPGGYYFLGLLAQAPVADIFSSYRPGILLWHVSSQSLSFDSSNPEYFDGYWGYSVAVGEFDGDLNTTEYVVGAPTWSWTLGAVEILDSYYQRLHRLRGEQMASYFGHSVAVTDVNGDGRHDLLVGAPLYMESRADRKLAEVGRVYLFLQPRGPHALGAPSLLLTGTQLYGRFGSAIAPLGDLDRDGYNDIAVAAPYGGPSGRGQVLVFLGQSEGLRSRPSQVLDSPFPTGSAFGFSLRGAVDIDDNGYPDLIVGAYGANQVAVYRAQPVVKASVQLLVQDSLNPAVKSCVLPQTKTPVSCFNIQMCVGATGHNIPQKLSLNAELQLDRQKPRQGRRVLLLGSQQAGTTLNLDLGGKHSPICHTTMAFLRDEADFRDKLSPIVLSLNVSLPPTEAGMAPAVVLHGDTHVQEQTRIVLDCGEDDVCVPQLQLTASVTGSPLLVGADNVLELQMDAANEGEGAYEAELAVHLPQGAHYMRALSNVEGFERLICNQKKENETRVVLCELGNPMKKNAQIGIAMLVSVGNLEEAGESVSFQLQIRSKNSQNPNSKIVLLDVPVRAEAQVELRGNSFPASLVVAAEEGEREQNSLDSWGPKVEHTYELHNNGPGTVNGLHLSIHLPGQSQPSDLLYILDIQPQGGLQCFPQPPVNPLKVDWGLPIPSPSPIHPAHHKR
Chain of Integrin alpha-IIb/beta-3 (P08514 891-1039 limits assumed): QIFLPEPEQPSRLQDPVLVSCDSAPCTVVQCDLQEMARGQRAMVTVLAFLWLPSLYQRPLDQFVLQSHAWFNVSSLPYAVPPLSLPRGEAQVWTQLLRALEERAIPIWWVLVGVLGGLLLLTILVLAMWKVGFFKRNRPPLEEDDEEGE

Regarding `N=C(N)c1ccc(NC(=O)c2ccc3c(c2)NC(CC(=O)O)C(=O)N(CCc2ccccc2)C3)cc1` (configuration not stated), the IC50 (usually the concentration that gives 50% inhibition) in the assay filed under Homo sapiens was found to be 8 nM. In the assay listed under Homo sapiens, `CN(CCC1CCNCC1)C(=O)c1ccc2c(c1)CC(CC(=O)O)C(=O)N(CCc1cccs1)C2` (configuration not stated) yielded an IC50 of 18 nM. Further, the affinity in assay [1] corresponds to a Ki of 2.5 nM.

In turn, `CN(CCC1CCNCC1)C(=O)c1ccc2c(c1)CC(CC(=O)O)C(=O)N(CCCCCc1ccccc1)C2` (configuration not stated) yielded an IC50 in the assay listed under Homo sapiens of 8 nM. Also, the Ki (usually a dissociation constant, usually derived from enzyme kinetics or from competition with a known ligand) in assay [1] is 2 nM. The matching figures for `CN(CCC1CCNCC1)C(=O)c1ccc2c(c1)CC(CC(=O)O)C(=O)N(C)C2` (configuration not stated): 33 nM and 1.5 nM. The matching figures for `CC(C)N1Cc2ccc(C(=O)N(C)CCC3CCNCC3)cc2CC(CC(=O)O)C1=O` (configuration not stated): 37 nM and 2 nM.

Compound `CN(CCC1CCNCC1)C(=O)c1ccc2c(c1)CC(CC(=O)O)C(=O)N(C1CCCCC1)C2` (configuration not stated) had an IC50 in the assay filed under Homo sapiens of 49 nM. In assay [1], this compound had a Ki of 1.3 nM.

With `CN(CCC1CCNCC1)C(=O)c1ccc2c(c1)CC(CC(=O)O)C(=O)NC2` (configuration not stated), the IC50 in the assay listed under Homo sapiens was 71 nM. Further, in assay [1], the Ki was determined as 3.2 nM. The matching figures for `CN(CCC1CCNCC1)C(=O)c1ccc2c(c1)CC(CC(=O)O)C(=O)N(CCc1ccccc1)C2` (configuration not stated): 13 nM and 3 nM.

In the assay filed under Homo sapiens, `CN(CCC1CCNCC1)C(=O)c1ccc2c(c1)CC(CCC(=O)O)C(=O)N(CCc1ccccc1)C2` (configuration not stated) came in with an IC50 of 7790 nM. The compound further yielded a Ki in assay [1] of 650 nM. As to `CN(CCC1CCNCC1)C(=O)c1ccc2c(c1)CC(CC(=O)O)C(=O)N(Cc1ccccc1)C2` (configuration not stated), half-maximal inhibition in the assay filed under Homo sapiens (IC50) was put at 36 nM. In assay [1], the inhibition constant (Ki) is 1 nM. In the case of `CN(CCC1CCNCC1)C(=O)c1ccc2c(c1)CC(CC(=O)O)C(=O)N(CCC1CCCCC1)C2` (configuration not stated), the 50% inhibitory concentration (IC50) in the assay filed under Homo sapiens was 27 nM. In assay [1], the inhibitory constant (Ki) worked out at 2 nM. The matching figures for `CC(C)CCN1Cc2ccc(C(=O)N(C)CCC3CCNCC3)cc2CC(CC(=O)O)C1=O` (configuration not stated): 32 nM and 1.5 nM.

Regarding `CN(C(=O)c1ccc2c(c1)CC(CC(=O)O)C(=O)N(CCc1ccccc1)C2)c1ccc(C(=N)N)cc1` (configuration not stated), the IC50 in the assay listed under Homo sapiens was found to be 12 nM. This compound also returned an inhibition constant (Ki) in assay [1] of 1.5 nM. Taken in the same sequence, the figures for `CN(CCC1CCNCC1)C(=O)c1ccc2c(c1)CC(CC(=O)O)C(=O)N(CCc1ccc(F)cc1)C2` (configuration not stated) were 27 nM and 1.7 nM.

Consider `CN(CCC1CCNCC1)C(=O)c1ccc2c(c1)CC(CC(=O)O)C(=O)N(CCC(C)(C)C)C2` (configuration not stated), for which the IC50 in the assay listed under Homo sapiens amounted to 27 nM. This compound yielded an inhibition constant Ki in assay [1] of 2 nM. `CCCCN1Cc2ccc(C(=O)N(C)CCC3CCNCC3)cc2CC(CC(=O)O)C1=O` (configuration not stated) returned a 50% inhibitory concentration (IC50) in the assay filed under Homo sapiens of 31 nM. Moreover, the Ki in assay [1] was 1.5 nM. `CN(C(=O)c1ccc2c(c1)NC(CC(=O)O)C(=O)N(CCc1ccccc1)C2)c1ccc(C(=N)N)cc1` (configuration not stated): half-maximal inhibition in the assay listed under Homo sapiens (IC50) required 28 nM.
